US12084521B2, “TLR9 inhibitors to suppress inflammatory response to pathogens” (University Of Maryland, Baltimore, priority 2018, dated 2024)
Entries after “also recorded” stand apart in the source; their conditions may differ.

Experiments:
[1] = tested on: TLR9 signaling; assay: ODN 1668-induced cytokine mRNA expression in BMDM (quantitative real time PCR); assay type: cell-based, mouse; settings: BMDM; for inhibition of TLR9 signaling (ODN 1668-induced cytokine mRNA, overall): peptide 10, 20 or 40 μM, ODN 1668 1 μM
Experimental: The cDNA obtained was amplified with gene-specific primers for mouse HPRT, TNFα, IL-10, IL-12-p40, or IL-6 and Fast SYBR Green™ master mix (Applied Biosystemsm) as previously described.
Mouse BMDMs were incubated in the presence of a 10, 20 or 40 μM decoy peptide for 30 minutes prior to stimulation with ODN 1668 (1 μM). […] Data represent the means±SEM of at least three independent experiments. The statistical significance of changes in cytokine mRNA was determined by a one-way ANOVA test; *p<0.001. Peptides 9R3 and 9R34 have overlapping sequences (see Table 1).
To investigate inhibition of TLR9 signaling by 9R34 analogues, the following work was performed. Mouse BMDMs were incubated in the presence of a 10, 20 or 40 μM decoy peptide for 30 minutes prior to stimulation with ODN 1668 (1 μM). Cytokine mRNA expression was measured 1 hour after ODN 1668 challenge and normalized to the expression of HPRT. See also Table 1. Data represent means±SEM of at least three independent experiments.

[2] = target: T1, MyD88 TIR (Homo sapiens, UniProt Q99836); assay: FLIM/FRET binding of Cy3-labeled peptides to Cer-fused TIR in HeLa cells
T1 construct: expressed in transfected cells; host or cells: HeLa
T1 sequence (Q99836 159-293 limits assumed): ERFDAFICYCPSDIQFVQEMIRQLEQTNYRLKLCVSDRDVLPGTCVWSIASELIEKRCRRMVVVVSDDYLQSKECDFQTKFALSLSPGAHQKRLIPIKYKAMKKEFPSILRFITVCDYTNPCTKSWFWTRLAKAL
Experimental: (§1) Three million HeLa cells were transfected with 10 μg of MyD88-Cer, TIRAP-Cer, TRAM-Cer, TLR2-Cer, TLR4 TIR-Cer, or TLR9 TIR-Cer expression vectors using a Lipofectamine™ 3000 kit from Invitrogen™ per manufacturer recommendations. Twenty four hours later, the transfected cells were trypsinized and reseeded into a 50-well gasket (Grace Bio-Labs™) mounted on a microscope slide at the density 8000 cells/well. The next day, cells were treated with Cy3-9R34-ΔN or Cy3-9R11 for 1 hour and fixed on the slides with a 4% paraformaldehyde solution.
(§2) Fluorescence lifetime images were acquired using the Alba V FLIM™ system (ISS™ Inc.). The excitation was from the laser diode 443 nm coupled with scanning module (ISS™) through multiband dichroic filter 443/532/635 nm (Semrock™) to Olympus™ IX71S microscope with objective 20×0.45 NA (UPlan™ Olympus™). Emission was observed through bandpass filter […] (Chroma Technology™) and detected by a photomultiplier H7422-40 (Hamamatsu™). Measurements were performed using frequency domain (FD) and time domain (TD) modalities of the FLIM system. FD FLIM data were acquired using ISS™ A320 FastFLIM™ electronics with n harmonics of 20 MHz laser repetition frequency (n=1, 2, 3, 4, 5, 6). FastFLIM™ was calibrated using fluorescein in buffer pH 8.0 as a standard with a single lifetime of 4.0 ns. TD FLIM images were acquired using time-correlated single photon counting TCSPC™ Model SPC-830 (Becker & Hick™).
(§3) Images (256×256 pixels) were acquired with resolution varied in the range ˜0.4-0.7 μm/pixel, using scan speed 1 ms/pixel. To avoid pixel intensity saturation in bright cells and to improve the signal from dim cells, two to five overlapping scans were used for acquisition of FLIM images. Image sizes varied from 100×100 to 180×180 μm to accommodate multiple cells. FLIM data were analyzed with VistaVision™ Suite software (Vista™ v.212 from ISST). Fluorescence lifetime was determined using single- and bi-exponential intensity decay models. Average lifetime images were generated based on pixel-by-pixel analysis using the combined signal of two neighboring pixels in all directions (bin 2=25 pixels). The binning was used to improve the signal for analysis. The average lifetimes were calculated from fitted parameters, decay times τi and amplitudes αi, τa=Σαiτi. The bi-exponential fitting procedure was performed with one lifetime component fixed at 3.1 nsec, which was found common for most images. To calculate the effective FRET efficiency (E), average lifetimes of the donor only images (τD) and donor-acceptor images (τDA) were used, E=1−τDA/τD.
(§4) To identify potential binding partners of inhibitory peptides a FRET approach coupled with Fluorescence Lifetime Imaging Microscopy (FLIM) was used. HeLa cells were transiently transfected with an expression vector that encodes a TIR domain fused with Cerulean fluorescent protein (Cer). Cells were treated with various concentrations of a Cy3-labeled inhibitory peptide 48 hours after transfection. Cy3 is a suitable FRET acceptor for Cer fluorescence. A direct molecular interaction of a Cy3-labeled peptide with Cer-fused TIR domain should quench Cer fluorescence, leading to a decreased fluorescence lifetime.
(§5) TLR9, MyD88, and TIRAP were selected as potential primary binding partners for Cy3-9R34-ΔN and Cy3-9R11. Cer-fused TLR2 and TLR4 TIR domains, and Cer not fused to a TIR, were used as controls. […] Therefore, the TIRAP-Cer with Cy3-2R9 was used as a positive binding control. Binding of Cy3-labeled CPDPs to Cerulean- (Cer-) labeled TIR domains was tested as follows. Fluorescence Lifetime IMages (FLIM) were made of HeLa cells expressing Cer not fused with a TIR domain (upper row) or fused with TLR9 TIR or TIRAP TIR (middle and bottom rows) and treated with a Cy3-labeled decoy peptide for 1 hour.
(§6) A progressive shift of average fluorescence lifetime towards lower values observed with increasing peptide concentrations indicates the binding between donor and acceptor moieties. […]

[3] = target: T2, TLR9 TIR (Homo sapiens, UniProt Q9NR96); assay: as above
T2 construct: expressed in transfected cells; host or cells: HeLa
T2 sequence (Q9NR96 868-1013 limits assumed): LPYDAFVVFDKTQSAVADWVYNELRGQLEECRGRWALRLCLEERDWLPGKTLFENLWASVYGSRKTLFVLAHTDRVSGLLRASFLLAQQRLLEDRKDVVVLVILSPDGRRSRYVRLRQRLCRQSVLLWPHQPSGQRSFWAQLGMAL
Experimental: as §1, §2, §3, §4, §5, §6

[4] = target: T3, TIRAP TIR (Homo sapiens, UniProt P58753); assay: as above
T3 construct: fused with TLR9 TIR or TIRAP TIR; expressed in transfected cells; host or cells: HeLa
T3 sequence (P58753 84-213 limits assumed): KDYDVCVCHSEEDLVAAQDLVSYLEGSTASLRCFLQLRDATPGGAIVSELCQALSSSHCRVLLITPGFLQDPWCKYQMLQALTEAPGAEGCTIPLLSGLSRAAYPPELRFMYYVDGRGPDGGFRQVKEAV
Experimental: as §1, §2, §3, §4, §5, §6

[5] = peptide 10, 20 or 40 μM 30 min before ODN 1668 (1 μM), 1 hour, normalized to HPRT

| Sequence | TNFα mRNA expression ([1]; peptide 10, 20 or 40 μM 30 min before ODN 1668 (1 μM), 1 hour after stimulation, normalized to HPRT) | IL-10 mRNA expression [1, 5] | IL-12-p40 mRNA expression [1, 5] | inhibition of TLR9 signaling (ODN 1668-induced cytokine mRNA, overall) [1] | interaction with MyD88 TIR (FLIM summary) [2] | binding to TLR9 TIR (FLIM summary) [3] | binding to TIRAP TIR (FLIM summary) [4] |
| --- | --- | --- | --- | --- | --- | --- | --- |
| RSFWAQLGMALTRD (Synthetic peptide 9R11) | significantly suppressed | significantly suppressed | significantly suppressed | inhibit TLR9 signaling | interacted with the MyD88 TIR, but with a lower affinity | bind | bind |
| ALRLCLEERD [Peptide 9R34-ΔN] |  |  |  | as potent as the parent peptide; also recorded: inhibited TLR9 signaling more potently than 9R3 | did not interact | bind | bind |
